# Columns and labels:
# [1] = biological target: Human α2δ-1 subunit of Cav2.2 calcium channel (Homo sapiens, UniProt P54289); experiment: Human α2δ-1 subunit of Cav2.2 calcium channel assay ([3H]-gabapentin binding); conditions: binding to the α2δ-1 subunit of voltage-gated calcium channels, expressed as Ki class; + also covers inhibition between 1% and 50%
# How it was run: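 Human α2δ-1 enriched membranes (2.5 μg) incubated 60 min at 27° C. with 15 nM [3H]-gabapentin in 10 mM Hepes-KOH pH 7.4; non-specific binding with 10 μM pregabalin. Filtration binding; % inhibition at 1 or 10 μM, or Ki from five concentrations.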
# Human σ1 receptor = biological target: T1, Human σ1 receptor (Homo sapiens, UniProt Q99720); experiment: Human σ1 receptor radioligand assay ([3H](+)-pentazocine binding); conditions: binding to the σ1 receptor, expressed as Ki class; + also covers inhibition between 1% and 50%
# T1 construct: expressed in transfected cells; host or cells: HEK-293
# How it was run: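 Membranes (7 μg) were incubated with 5 nM [3H](+)-pentazocine in 50 mM Tris-HCl pH 8 for 120 min at 37° C. Non-specific binding was defined with 10 μM haloperidol. Values are % inhibition at 1 or 10 μM or Ki from five concentrations, read by filtration and scintillation counting.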
# T1 sequence (Q99720 whole entry): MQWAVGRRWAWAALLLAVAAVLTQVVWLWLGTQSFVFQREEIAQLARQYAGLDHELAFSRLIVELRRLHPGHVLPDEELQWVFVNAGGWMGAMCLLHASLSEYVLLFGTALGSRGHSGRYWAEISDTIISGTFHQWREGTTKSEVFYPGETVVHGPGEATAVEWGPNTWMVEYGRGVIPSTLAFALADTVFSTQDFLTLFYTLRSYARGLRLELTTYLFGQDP
# Human α2δ-1 subunit of Cav2.2 calcium channel, sequence (P54289 25-1103): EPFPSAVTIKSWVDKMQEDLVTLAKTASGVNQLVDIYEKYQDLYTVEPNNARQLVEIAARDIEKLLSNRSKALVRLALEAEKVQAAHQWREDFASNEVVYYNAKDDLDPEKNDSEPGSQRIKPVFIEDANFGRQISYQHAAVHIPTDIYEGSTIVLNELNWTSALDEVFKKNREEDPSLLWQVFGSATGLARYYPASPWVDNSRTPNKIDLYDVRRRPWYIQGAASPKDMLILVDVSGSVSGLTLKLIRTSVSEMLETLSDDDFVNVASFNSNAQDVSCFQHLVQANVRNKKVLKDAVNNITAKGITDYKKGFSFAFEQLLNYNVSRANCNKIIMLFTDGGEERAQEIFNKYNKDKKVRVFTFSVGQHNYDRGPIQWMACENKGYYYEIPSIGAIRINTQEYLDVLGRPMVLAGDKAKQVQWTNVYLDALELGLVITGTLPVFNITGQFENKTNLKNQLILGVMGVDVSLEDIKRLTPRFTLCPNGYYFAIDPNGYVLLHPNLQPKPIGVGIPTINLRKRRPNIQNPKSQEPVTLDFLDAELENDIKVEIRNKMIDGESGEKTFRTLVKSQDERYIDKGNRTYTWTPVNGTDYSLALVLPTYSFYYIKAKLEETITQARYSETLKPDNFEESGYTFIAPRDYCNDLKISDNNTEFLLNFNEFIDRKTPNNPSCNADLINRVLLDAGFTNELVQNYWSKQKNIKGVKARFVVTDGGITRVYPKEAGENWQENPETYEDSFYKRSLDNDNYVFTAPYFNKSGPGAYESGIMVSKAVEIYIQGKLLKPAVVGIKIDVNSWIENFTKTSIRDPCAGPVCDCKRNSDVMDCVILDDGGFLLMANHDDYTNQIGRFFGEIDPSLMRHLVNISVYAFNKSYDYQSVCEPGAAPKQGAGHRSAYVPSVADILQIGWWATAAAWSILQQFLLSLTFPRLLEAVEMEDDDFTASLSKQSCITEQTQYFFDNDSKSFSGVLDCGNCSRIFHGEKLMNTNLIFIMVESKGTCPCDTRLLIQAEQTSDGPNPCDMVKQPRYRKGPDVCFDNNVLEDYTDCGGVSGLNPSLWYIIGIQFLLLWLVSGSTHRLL
Ki [1],Ki (Human σ1 receptor),SMILES
< 500 nM,500 to 1000 nM,"CCC[C@H](c1nc2ccc(Br)cc2c(=O)n1CC)N1CCCN[C@H](C)C1 [Example 139, 6-Bromo-3-ethyl-2-((R)-1-((R)-3-methyl-1,4-diazepan-1-yl)butyl)quinazolin-4(3H)-one]"
> 5000 nM,> 1000 nM,"CCC[C@@H](c1nc2ccc(Br)cc2c(=O)n1CC)N1CCCN[C@@H](C)C1 [Example 140, 6-bromo-3-ethyl-2-((S)-1-((S)-3-methyl-1,4-diazepan-1-yl)butyl)quinazolin-4(3H)-one]"
> 5000 nM,500 to 1000 nM,"CCC[C@@H](c1nc2ccc(Br)cc2c(=O)n1CC)N1CCCN[C@H](C)C1 [Example 141, 6-bromo-3-ethyl-2-((S)-1-((R)-3-methyl-1,4-diazepan-1-yl)butyl)quinazolin-4(3H)-one]"
< 500 nM,> 1000 nM,"CCC[C@H](c1nc2ccc(Br)cc2c(=O)n1CC)N1CCCN[C@@H](C)C1 [Example 142, 6-bromo-3-ethyl-2-((R)-1-((S)-3-methyl-1,4-diazepan-1-yl)butyl)quinazolin-4(3H)-one]"
< 500 nM,< 500 nM,"CCC[C@H](c1nc2ccc(F)cc2c(=O)n1CC)N1CCCN[C@H](C)C1 [Example 143, 3-Ethyl-6-fluoro-2-((R)-1-((R)-3-methyl-1,4-diazepan-1-yl)butyl)quinazolin-4(3H)-one]"
> 5000 nM,> 1000 nM,"CCC[C@@H](c1nc2ccc(F)cc2c(=O)n1CC)N1CCCN[C@@H](C)C1 [Example 144, 3-ethyl-6-fluoro-2-((S)-1-((S)-3-methyl-1,4-diazepan-1-yl)butyl)quinazolin-4(3H)-one]"
< 500 nM,> 1000 nM,"CCC[C@H](c1nc2ccc(F)cc2c(=O)n1CC)N1CCCN[C@@H](C)C1 [Example 145, 3-ethyl-6-fluoro-2-((R)-1-((S)-3-methyl-1,4-diazepan-1-yl)butyl)quinazolin-4(3H)-one]"
> 5000 nM,> 1000 nM,CCC[C@@H](c1nc2ccc(F)cc2c(=O)n1CC)N1CCCN[C@H](C)C1 [Example 146]
< 500 nM,< 500 nM,"CCC[C@H](c1nc2ccc(Cl)cc2c(=O)n1C)N1CCCN[C@H](C)C1 [Example 147, 6-Chloro-3-methyl-2-((R)-1-((R)-3-methyl-1,4-diazepan-1-yl)butyl)quinazolin-4(3H)-one]"
< 500 nM,> 1000 nM,"CCC[C@H](c1nc2ccc(Cl)cc2c(=O)n1C)N1CCCN[C@@H](C)C1 [Example 148, 6-chloro-3-methyl-2-((R)-1-((S)-3-methyl-1,4-diazepan-1-yl)butyl)quinazolin-4(3H)-one]"
> 5000 nM,< 500 nM,"CCC[C@@H](c1nc2ccc(Cl)cc2c(=O)n1C)N1CCCN[C@@H](C)C1 [Example 149, 6-chloro-3-methyl-2-((S)-1-((S)-3-methyl-1,4-diazepan-1-yl)butyl)quinazolin-4(3H)-one]"
> 5000 nM,500 to 1000 nM,"CCC[C@@H](c1nc2ccc(Cl)cc2c(=O)n1C)N1CCCN[C@H](C)C1 [Example 150, 6-chloro-3-methyl-2-((S)-1-((R)-3-methyl-1,4-diazepan-1-yl)butyl)quinazolin-4(3H)-one]"
< 500 nM,< 500 nM,"CCC[C@H](c1nc2ccc(Br)cc2c(=O)n1CC)N1CCCN(C)CC1 [Example 151, (R)-6-Bromo-3-ethyl-2-(1-(4-methyl-1,4-diazepan-1-yl)butyl)quinazolin-4(3H)-one]"
> 5000 nM,500 to 1000 nM,"CCC[C@@H](c1nc2ccc(Br)cc2c(=O)n1CC)N1CCCN(C)CC1 [Example 152, (S)-6-bromo-3-ethyl-2-(1-(4-methyl-1,4-diazepan-1-yl)butyl)quinazolin-4(3H)-one]"
< 500 nM,< 500 nM,"CCC[C@H](c1nc2ccc(Br)cc2c(=O)n1CC)N1CCCN(CC)CC1 [Example 153, (R)-6-Bromo-3-ethyl-2-(1-(4-ethyl-1,4-diazepan-1-yl)butyl)quinazolin-4(3H)-one]"
> 5000 nM,< 500 nM,"CCC[C@@H](c1nc2ccc(Br)cc2c(=O)n1CC)N1CCCN(CC)CC1 [Example 154, (S)-6-bromo-3-ethyl-2-(1-(4-ethyl-1,4-diazepan-1-yl)butyl)quinazolin-4(3H)-one]"
> 5000 nM,> 1000 nM,"CCC[C@H](c1nc2cc(F)c(Br)cc2c(=O)n1CC)N1CCCN(C)CC1 [Example 155, (R)-6-Bromo-3-ethyl-7-fluoro-2-(1-(4-methyl-1,4-diazepan-1-yl)butyl)quinazolin-4(3H)-one]"
> 5000 nM,500 to 1000 nM,"CCC[C@@H](c1nc2cc(F)c(Br)cc2c(=O)n1CC)N1CCCN(C)CC1 [Example 156, (S)-6-bromo-3-ethyl-7-fluoro-2-(1-(4-methyl-1,4-diazepan-1-yl)butyl)quinazolin-4(3H)-one]"

Ki [1],Ki (Human σ1 receptor),SMILES
< 500 nM,> 1000 nM,"CCC[C@H](c1nc2cc(F)c(Br)cc2c(=O)n1CC)N1CCCNCC1 [Example 157, (R)-2-(1-(1,4-Diazepan-1-yl)butyl)-6-bromo-3-ethyl-7-fluoroquinazolin-4(3H)-one]"
> 5000 nM,> 1000 nM,"CCC[C@@H](c1nc2cc(F)c(Br)cc2c(=O)n1CC)N1CCCNCC1 [Example 158, (S)-2-(1-(1,4-diazepan-1-yl)butyl)-6-bromo-3-ethyl-7-fluoroquinazolin-4(3H)-one]"
< 500 nM,< 500 nM,"CCC[C@H](c1nc2ccc(Cl)cc2c(=O)n1CCC)N1CCCN(C)CC1 [Example 159, (R)-6-Chloro-2-(1-(4-methyl-1,4-diazepan-1-yl)butyl)-3-propylquinazolin-4(3H)-one]"
> 5000 nM,> 1000 nM,"CCC[C@@H](c1nc2ccc(Cl)cc2c(=O)n1CCC)N1CCCN(C)CC1 [Example 160, (S)-6-chloro-2-(1-(4-methyl-1,4-diazepan-1-yl)butyl)-3-propylquinazolin-4(3H)-one]"
< 500 nM,500 to 1000 nM,"CCC[C@H](c1nc2c(F)cc(Br)cc2c(=O)n1CC)N1CCCN(C)CC1 [Example 161, (R)-6-Bromo-3-ethyl-8-fluoro-2-(1-(4-methyl-1,4-diazepan-1-yl)butyl)quinazolin-4(3H)-one]"
> 5000 nM,500 to 1000 nM,"CCC[C@@H](c1nc2c(F)cc(Br)cc2c(=O)n1CC)N1CCCN(C)CC1 [Example 162, (S)-6-bromo-3-ethyl-8-fluoro-2-(1-(4-methyl-1,4-diazepan-1-yl)butyl)quinazolin-4(3H)-one]"
< 500 nM,> 1000 nM,"CCCC(c1nc2ccncc2c(=O)n1CC)N1CCCN(C)CC1 (stereo not drawn) [Example 163, 3-Ethyl-2-(1-(4-methyl-1,4-diazepan-1-yl)butyl)pyrido[4,3-d]pyrimidin-4(3H)-one]"
< 500 nM,> 1000 nM,"CCC[C@H](c1nc2ccncc2c(=O)n1CC)N1CCNC[C@H](C)C1 [Example 164, 3-ethyl-2-((R)-1-((S)-6-methyl-1,4-diazepan-1-yl)butyl)pyrido[4,3-d]pyrimidin-4(3H)-one]"
< 500 nM,> 1000 nM,"CCC[C@H](c1nc2ccncc2c(=O)n1CC)N1CCNC[C@@H](C)C1 [Example 165, 3-ethyl-2-((R)-1-((R)-6-methyl-1,4-diazepan-1-yl)butyl)pyrido[4,3-d]pyrimidin-4(3H)-one]"
> 5000 nM,> 1000 nM,"CCC[C@@H](c1nc2ccncc2c(=O)n1CC)N1CCNC[C@H](C)C1 [Example 166, 3-ethyl-2-((S)-1-((S)-6-methyl-1,4-diazepan-1-yl)butyl)pyrido[4,3-d]pyrimidin-4(3H)-one]"
500 to 5000 nM,> 1000 nM,"CCC[C@@H](c1nc2ccncc2c(=O)n1CC)N1CCNC[C@@H](C)C1 [Example 167, 3-ethyl-2-((S)-1-((R)-6-methyl-1,4-diazepan-1-yl)butyl)pyrido[4,3-d]pyrimidin-4(3H)-one]"
< 500 nM,> 1000 nM,"CCC[C@H](c1nc2ccncc2c(=O)n1CC)N1CCN(C)C[C@@H](C)C1 [Example 168, 2-((R)-1-((R)-4,6-dimethyl-1,4-diazepan-1-yl)butyl)-3-ethylpyrido[4,3-d]pyrimidin-4(3H)-one]"
< 500 nM,> 1000 nM,"CCC[C@H](c1nc2ccncc2c(=O)n1CC)N1CCN(C)C[C@H](C)C1 [Example 169, 2-((R)-1-((S)-4,6-dimethyl-1,4-diazepan-1-yl)butyl)-3-ethylpyrido[4,3-d]pyrimidin-4(3H)-one]"
500 to 5000 nM,> 1000 nM,"CCC[C@@H](c1nc2ccncc2c(=O)n1CC)N1CCN(C)C[C@H](C)C1 [Example 170, 2-((S)-1-((S)-4,6-dimethyl-1,4-diazepan-1-yl)butyl)-3-ethylpyrido[4,3-d]pyrimidin-4(3H)-one]"
> 5000 nM,> 1000 nM,"CCC[C@@H](c1nc2ccncc2c(=O)n1CC)N1CCN(C)C[C@@H](C)C1 [Example 171, 2-((S)-1-((R)-4,6-dimethyl-1,4-diazepan-1-yl)butyl)-3-ethylpyrido[4,3-d]pyrimidin-4(3H)-one]"
< 500 nM,> 1000 nM,"CCCC(c1nc2ccncc2c(=O)n1CC)N1CCCNCC1 (stereo not drawn) [Example 172, 2-(1-(1,4-diazepan-1-yl)butyl)-3-ethylpyrido[4,3-d]pyrimidin-4(3H)-one]"
< 500 nM,> 1000 nM,"CCC[C@H](c1nc2ccncc2c(=O)n1CC)N1CCCN(C)CC1 [Example 173, (R)-3-Ethyl-2-(1-(4-methyl-1,4-diazepan-1-yl)butyl)pyrido[4,3-d]pyrimidin-4(3H)-one]"
> 5000 nM,> 1000 nM,"CCC[C@@H](c1nc2ccncc2c(=O)n1CC)N1CCCN(C)CC1 [Example 174, (S)-3-ethyl-2-(1-(4-methyl-1,4-diazepan-1-yl)butyl)pyrido[4,3-d]pyrimidin-4(3H)-one]"
